Source: the supplement of paper PMC12137928
Where a name gives a salt, the structure may show the parent alone.

Test system: HCT116
Conditions: 72 h
How it was run: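 Each well of the 1536-well plates received 250 HCT116 cells, which attached over 5 h. Luminescence was measured with CellTiter-Glo, scaled with vehicle as 0% and positive control as -100%, and pattern-corrected. A four-parameter Hill fit yielded IC50 and maximal efficacy.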

Row | Compound | IC50 cell viability (ICRF193 0 nM) [µM] | IC50 cell viability (ICRF193 200 nM) [µM]
1 | CN[C@H]1C(=O)N[C@@H]2Cc3ccc(cc3)Oc3cc4cc(c3O[C@@H]3O[C@H](C(=O)O)[C@@H](O)[C@H](O)[C@H]3NC(=O)CCCCCCCCC(C)C)Oc3ccc(cc3Cl)[C@@H](O)[C@@H]3NC(=O)[C@H](NC(=O)[C@@H]4NC(=O)[C@@H](NC2=O)c2cc(cc(O)c2Cl)Oc2cc1ccc2O)c1ccc(O)c(c1)-c1c(O[C@H]2O[C@H](CO)[C@@H](O)[C@H](O)[C@@H]2O)cc(O)cc1[C@@H](C(=O)NCCCN(C)C)NC3=O [Dalbavancin] | > 45.8 | > 45.8
2 | CCNC(=O)NCCCOc1cccc(CN2CCCCC2)c1 [Dalcotidine] | > 45.8 | > 45.8
3 | CCN(CC)CCS(=O)(=O)[C@@H]1CCN2C(=O)c3coc(n3)CC(=O)C[C@H](O)/C=C(C)/C=C/CNC(=O)/C=C/[C@@H](C)[C@@H](C(C)C)OC(=O)[C@@H]12 [Dalfopristin] | > 45.8 | > 45.8
4 | CN1C[C@@H]2C[C@H]1CN2c1cc2c(cc1F)c(=O)c(C(=O)O)cn2C1CC1 [Danofloxacin] | > 45.8 | > 45.8
5 | O=C1c2cccc(O)c2C(=O)c2c(O)cccc21 [Danthron] | > 45.8 | > 45.8
6 | O=C1CN(/N=C/c2ccc(-c3ccc([N+](=O)[O-])cc3)o2)C(=O)N1 [Dantrolene sodium] | > 45.8 | > 45.8
7 | CCOc1ccc(Cc2cc([C@@H]3O[C@H](CO)[C@@H](O)[C@H](O)[C@H]3O)ccc2Cl)cc1 [Dapagliflozin] | > 45.8 | > 45.8
8 | Cc1ccccc1N1CCN(CCc2nnc3n2CCCC3)CC1 [Dapiprazole hydrochloride] | > 45.8 | > 45.8
9 | Nc1ccc(S(=O)(=O)c2ccc(N)cc2)cc1 [Dapsone] | > 45.8 | > 45.8
10 | CCCCCCCCCC(=O)N[C@@H](Cc1c[nH]c2ccccc12)C(=O)N[C@H](CC(N)=O)C(=O)N[C@@H](CC(=O)O)C(=O)N[C@@H]1C(=O)NCC(=O)N[C@@H](CCCN)C(=O)N[C@@H](CC(=O)O)C(=O)N[C@H](C)C(=O)N[C@@H](CC(=O)O)C(=O)NCC(=O)N[C@H](CO)C(=O)N[C@@H]([C@H](C)CC(=O)O)C(=O)N[C@@H](CC(=O)c2ccccc2N)C(=O)O[C@@H]1C [Daptomycin] | > 45.8 | > 45.8
11 | C[N+](C)(C)CCCCCCCCCC[N+](C)(C)C [Decamethonium bromide] | > 45.8 | > 45.8
12 | CCCCCCCCCC(=O)O [Decanoic acid] | > 45.8 | > 45.8
13 | Nc1ncn([C@H]2C[C@H](O)[C@@H](CO)O2)c(=O)n1 [Decitabine] | > 45.8 | > 45.8
14 | CCCCCCCCCCOc1cc2c(O)c(C(=O)OCC)cnc2cc1OCC [Decoquinate] | > 45.8 | > 45.8
15 | Cc1c(O)c(=O)ccn1C [Deferiprone] | > 45.8 | > 45.8
16 | CC(=O)OCC(=O)[C@@]12N=C(C)O[C@@H]1C[C@H]1[C@@H]3CCC4=CC(=O)C=C[C@]4(C)[C@H]3[C@@H](O)C[C@@]12C [Deflazacort] | > 45.8 | > 45.8
17 | C[C@H](CCC(=O)O)[C@H]1CC[C@H]2[C@@H]3C(=O)C[C@@H]4CC(=O)CC[C@]4(C)[C@H]3CC(=O)[C@]12C [Dehydrocholic acid] | > 45.8 | > 45.8
18 | C[C@]12CC[C@H](OS(=O)(=O)O)CC1=CC[C@@H]1[C@@H]2CC[C@]2(C)C(=O)CC[C@@H]12 [Dehydroepiandrosterone Sulfate (sodium salt)] | > 45.8 | > 45.8
19 | C[C@]12CC[C@H](O)CC1=CC[C@@H]1[C@@H]2CC[C@]2(C)C(=O)CC[C@@H]12 [Dehydroepiandrosterone] | > 45.8 | > 45.8
20 | Nc1nc(-n2cc(C(=O)O)c(=O)c3cc(F)c(N4CC(O)C4)c(Cl)c32)c(F)cc1F [Delafloxacin (meglumine)] | > 45.8 | > 45.8
21 | C[C@]1(COc2ccc(N3CCC(Oc4ccc(OC(F)(F)F)cc4)CC3)cc2)Cn2cc([N+](=O)[O-])nc2O1 [Delamanid] | > 45.8 | > 45.8
22 | CCOC(=O)[C@H](CCc1ccccc1)N[C@@H](C)C(=O)N(CC(=O)O)C1Cc2ccccc2C1 [Delapril hydrochloride] | > 45.8 | > 45.8
23 | CC(C)Nc1cccnc1N1CCN(C(=O)c2cc3cc(NS(C)(=O)=O)ccc3[nH]2)CC1 [Delavirdine] | > 45.8 | > 45.8
24 | CN(CCCCCCCCCCN(C)C(=O)Oc1cccc([N+](C)(C)C)c1)C(=O)Oc1cccc([N+](C)(C)C)c1 [Demecarium bromide] | > 45.8 | > 45.8
25 | CC[N+](CC)(CC(=O)Nc1c(C)cccc1C)Cc1ccccc1 [Denatonium benzoate] | > 45.8 | > 45.8
26 | CC(=O)OCC(=O)[C@H]1CC[C@H]2[C@@H]3CCC4=CC(=O)CC[C@]4(C)[C@H]3CC[C@]12C [Deoxycorticosterone acetate] | > 45.8 | > 45.8
27 | CCCCNc1ccc(C(=O)OCCN(CC)CC)cc1 [Depolipon] | > 45.8 | > 45.8

Row | Compound | IC50 cell viability (ICRF193 0 nM) [µM] | IC50 cell viability (ICRF193 200 nM) [µM]
28 | COc1ccc(-c2cc(C(F)F)nn2-c2ccc(S(N)(=O)=O)cc2)cc1F [Deracoxib] | > 45.8 | > 45.8
29 | CN1C(=O)[C@]23C[C@H]4C(C)(C)[C@]5(CNc6c5ccc5c6OC=CC(C)(C)O5)C[C@@]41CN2CC[C@@]3(C)O [Derquantel] | > 45.8 | > 45.8
30 | Clc1ccc2c(c1)CCc1cccnc1C2=C1CCNCC1 [Desloratadine] | > 45.8 | > 45.8
31 | N=C(N)NCCC[C@@H](NC(=O)[C@@H]1CCCN1C(=O)[C@@H]1CSSCCC(=O)N[C@@H](Cc2ccc(O)cc2)C(=O)N[C@@H](Cc2ccccc2)C(=O)N[C@@H](CCC(N)=O)C(=O)N[C@@H](CC(N)=O)C(=O)N1)C(=O)NCC(N)=O [Desmopressin (Acetate)] | > 45.8 | > 45.8
32 | C#C[C@]1(O)CC[C@H]2[C@@H]3CCC4=CCCC[C@@H]4[C@H]3C(=C)C[C@@]21CC [Desogestrel] | > 45.8 | > 45.8
33 | CC1(C)O[C@@H]2C[C@H]3[C@@H]4CCC5=CC(=O)C=C[C@]5(C)[C@H]4[C@@H](O)C[C@]3(C)[C@]2(C(=O)CO)O1 [Desonide] | > 45.8 | > 45.8
34 | C[C@@H]1C[C@H]2[C@@H]3CCC4=CC(=O)C=C[C@]4(C)[C@@]3(F)[C@@H](O)C[C@]2(C)[C@H]1C(=O)CO [Desoximetasone] | > 45.8 | > 45.8
35 | CC(C)(C)C(=O)OCC(=O)[C@H]1CC[C@H]2[C@@H]3CCC4=CC(=O)CC[C@]4(C)[C@H]3CC[C@]12C [Desoxycorticosterone Pivalate] | > 45.8 | > 45.8
36 | Cc1cccc(Cc2c[nH]cn2)c1C [Detomidine hydrochloride] | > 45.8 | > 45.8
37 | CCCCCCCCCCCCCCCC(=O)OCC(=O)[C@@]1(O)[C@H](C)C[C@H]2[C@@H]3CCC4=CC(=O)C=C[C@]4(C)[C@@]3(F)[C@@H](O)C[C@@]21C [Dexamethasone 21-Palmitate] | > 45.8 | > 45.8
38 | C[C@@H]1C[C@H]2[C@@H]3CCC4=CC(=O)C=C[C@]4(C)[C@@]3(F)[C@@H](O)C[C@]2(C)[C@@]1(O)C(=O)COP(=O)(O)O [Dexamethasone 21-phosphate disodium salt] | > 45.8 | > 45.8
39 | CC(=O)OCC(=O)[C@@]1(O)[C@H](C)C[C@H]2[C@@H]3CCC4=CC(=O)C=C[C@]4(C)[C@@]3(F)[C@@H](O)C[C@@]21C [Dexamethasone acetate] | > 45.8 | > 45.8
40 | C[C@@H]1C[C@H]2[C@@H]3CCC4=CC(=O)C=C[C@]4(C)[C@@]3(F)[C@@H](O)C[C@]2(C)[C@@]1(O)C(=O)COC(=O)c1ccncc1 [Dexamethasone isonicotinate] | > 45.8 | > 45.8
41 | C[C@@H]1C[C@H]2[C@@H]3CCC4=CC(=O)C=C[C@]4(C)[C@@]3(F)[C@@H](O)C[C@]2(C)[C@@]1(O)C(=O)CO [Dexamethasone] | > 45.8 | > 45.8
42 | CN(C)CC[C@@H](c1ccc(Cl)cc1)c1ccccn1 [Dexchlorpheniramine hydrochloride] | > 45.8 | > 45.8
43 | Cc1cccc([C@H](C)c2c[nH]cn2)c1C [Dexmedetomidine] | > 45.8 | > 45.8
44 | CC(C)(CO)[C@@H](O)C(=O)NCCCO [Dexpanthenol] | > 45.8 | > 45.8
45 | CC(C)NC[C@@H](O)COc1cccc2ccccc12 [Dexpropranolol] | > 45.8 | > 45.8
46 | C[C@@H](CN1CC(=O)NC(=O)C1)N1CC(=O)NC(=O)C1 [Dexrazoxane hydrochloride] | > 45.8 | > 45.8
47 | OC[C@H]1OC(O)[C@H](O)[C@@H](O)[C@@H]1O (stereo partly specified) [Dextrose] | > 45.8 | > 45.8
48 | CCN(CC)CCOc1ccc2nc(N(C)C)sc2c1 [Diamthazole] | > 45.8 | > 45.8
49 | CC(=O)Nc1c(I)c(NC(C)=O)c(I)c(C(=O)O)c1I [Diatrizoic acid dihydrate] | > 45.8 | > 45.8
50 | CC1=Nc2ccc(Cl)cc2S(=O)(=O)N1 [Diazoxide] | > 45.8 | > 45.8
51 | CN(C)CCN1C(=O)c2ccccc2N(C)c2ccccc21 [Dibenzepin hydrochloride] | > 45.8 | > 45.8
52 | c1ccc2c(c1)sc1ccccc12 [Dibenzothiophene] | > 45.8 | > 45.8
53 | O[C@@H]([C@H](O)[C@H](O)CBr)[C@H](O)CBr [Dibromomannitol] | > 45.8 | > 45.8
